According to US20260027220A1, “EPHA2 BCL-XL INHIBITOR ANTIBODY-DRUG CONJUGATES AND METHODS OF USE THEREOF” (Novartis AG, priority 2022, published 2026):
Blank lines part the entries; values can stand above or below the molecule they belong to.

How the values were obtained:
Panc03.27 xenografts = test: Panc03.27 xenograft efficacy, combination with gemcitabine (Table 15, FIG. 3); format: in vivo, mice; settings: Gemcitabine 100 mg/kg IP q3dx3 alone
Description: (§1) EBC-1 cells were cultured at 37° C. (atmosphere of 5% CO2) in DMEM medium (Gibco 11965-084) supplemented with 10% FBS (HI-FBS #134K19, Tet-free). Panc03.27 cells were cultured at 37° C. (atmosphere of 5% CO2) in RPMI-1640 medium (Gibco 11875-085) supplemented with 15% FBS and 10 units/mL recombinant human insulin. Treatment with 0.25% Trypsin (Gibco 25200-056) was used for sub-culturing. To establish EBC-1 and Panc03.27 xenografts, cells were harvested and re-suspended in a 1:1 v/v mixture of phosphate buffered saline and Matrigel. A total of 5×10^6 EBC-1 cells and 10×10^6 Panc03.27 cells were injected subcutaneously in the flanks of female nude mice (Charles River, USA) in a volume of 200 μL. Tumor growth was monitored regularly post cell inoculation, and animals were randomized into treatment groups (n=8) with a mean tumor volume of about 200 mm^3.
(§2) For EBC-1 efficacy studies, EphA2-DANAPA-L11C-P25 ADC, 3207-DANAPA-L11C-P25 isotype control ADC, and EphA2-DANAPA CysMab control antibody were all dosed in combination with paclitaxel (LC Laboratories, Woburn, MA, Cat #: P-9600), as indicated in FIG. 1 and FIG. 2. For Panc03.27 efficacy studies, EphA2-DANAPA-L11C-P25 ADC, 3207-DANAPA-L11C-P25 isotype control ADC, and EphA2-DANAPA CysMab control antibody were all dosed in combination with either gemcitabine (Hospira, NDC Code 0409-0185-01) or the MAPK inhibitors (MAPKi) LXH254 and CFF272, as indicated in FIG. 3 and FIG. 4 respectively. […]
(§3) Tumor volume data were analyzed for statistical significance relative to the EphA2-DANAPA-L11C-P25 ADC combination groups. […]
(§4) As a measure of efficacy, % T/C values were calculated according to the following formula: (Δtumor volume in experimental group/Δtumor volume in vehicle control group)*100. Tumor regression was calculated according to the following formula: (Δtumor volume in experimental group/tumor volume in experimental group at start)*100. Δtumor volumes represent mean tumor volumes on the measurement day minus the mean tumor volume at the start of treatment. […]

ocum1 = test: CellTiter-Glo proliferation assay, ocum1; format: cell-based; settings: single agent, 5 days of treatment
Description: (§5) EphA2-L11A-P21 antibody drug conjugate (ADC) alone or in combination with Trametinib were tested against cancer cell lines obtained from ATCC (American Type Culture Collection) or from other commercial cell line vendors. EphA2-L11A-P21 ADC was prepared according to any of the conjugation methods described herein. The cells were cultured in media that is optimal for their growth at 5% CO2, 37° C. in a tissue culture incubator. Prior to seeding for the proliferation assay, the cells were split at least 2 days before the assay to ensure optimal growth density. On the day of seeding, cells were lifted off tissue culture flasks using 0.25% trypsin. Cell viability and cell density were determined using a cell counter (Vi-Cell XR Cell Viability Analyzer, Beckman Coulter). […]
(§6) The ADCs were prepared in standard phosphate buffered solution to desired concentrations. […] The ability of the ADCs to inhibit cell proliferation and survival was assessed using the Promega CellTiter-Glo® proliferation assay. Plates were incubated at room temperature for 20 minutes to stabilize luminescent signals prior to reading using a multimode plate reader (Pherastar, BMG). Luminescent counts of untreated cells were taken the day after seeding (Day 0 readings), and after 5 days of treatment (Day 5 readings). The Day 5 readings of the untreated cells were compared to the Day 0 readings. […]

sw403 = test: CellTiter-Glo proliferation assay, sw403; format: cell-based; settings: single agent, 5 days of treatment
Description: as §5, §6

skhep1 = test: CellTiter-Glo proliferation assay, skhep1; format: cell-based; settings: single agent, 5 days of treatment
Description: as §5, §6

skmel31 = test: CellTiter-Glo proliferation assay, skmel31; format: cell-based; settings: single agent, 5 days of treatment
Description: as §5, §6

dv90 = test: CellTiter-Glo proliferation assay, dv90; format: cell-based; settings: single agent, 5 days of treatment
Description: as §5, §6

ncin87 = test: CellTiter-Glo proliferation assay, ncin87; format: cell-based; settings: single agent, 5 days of treatment
Description: as §5, §6

panc0327 = test: CellTiter-Glo proliferation assay, panc0327; format: cell-based; settings: single agent, 5 days of treatment
Description: as §5, §6

capan2 = test: CellTiter-Glo proliferation assay, capan2; format: cell-based; settings: single agent, 5 days of treatment
Description: as §5, §6

hcc1143 = test: CellTiter-Glo proliferation assay, hcc1143; format: cell-based; settings: single agent, 5 days of treatment
Description: as §5, §6

aspc1 = test: CellTiter-Glo proliferation assay, aspc1; format: cell-based; settings: single agent, 5 days of treatment
Description: as §5, §6

ebc1 = test: CellTiter-Glo proliferation assay, ebc1; format: cell-based; settings: single agent, 5 days of treatment
Description: as §5, §6

jhom2b = test: CellTiter-Glo proliferation assay, jhom2b; format: cell-based; settings: single agent, 5 days of treatment
Description: as §5, §6

EBC-1 xenografts [1] = test: EBC-1 xenograft efficacy, combination with paclitaxel (Table 13, FIG. 1); format: in vivo, mice; settings: Paclitaxel 12.5 mg/kg SD IV alone; Day 12
Description: as §1, §2, §3, §4

EBC-1 xenografts [2] = test: EBC-1 xenograft efficacy, ADC dose reduction alone or with paclitaxel (Table 14, FIG. 2); format: in vivo, mice; settings: Paclitaxel 12.5 mg/kg SD IV alone
Description: as §1, §2, §3, §4

cyno EphA2 ectodomain [3] = target: T1, cyno EphA2 ectodomain (cyno, UniProt Q1KL86 25-537); test: SPR (Biacore 8k), Fab-capture, 37C, 1:1 model; *low binding signal
T1 construct: extracellular domain
T1 sequence (Q1KL86 25-537): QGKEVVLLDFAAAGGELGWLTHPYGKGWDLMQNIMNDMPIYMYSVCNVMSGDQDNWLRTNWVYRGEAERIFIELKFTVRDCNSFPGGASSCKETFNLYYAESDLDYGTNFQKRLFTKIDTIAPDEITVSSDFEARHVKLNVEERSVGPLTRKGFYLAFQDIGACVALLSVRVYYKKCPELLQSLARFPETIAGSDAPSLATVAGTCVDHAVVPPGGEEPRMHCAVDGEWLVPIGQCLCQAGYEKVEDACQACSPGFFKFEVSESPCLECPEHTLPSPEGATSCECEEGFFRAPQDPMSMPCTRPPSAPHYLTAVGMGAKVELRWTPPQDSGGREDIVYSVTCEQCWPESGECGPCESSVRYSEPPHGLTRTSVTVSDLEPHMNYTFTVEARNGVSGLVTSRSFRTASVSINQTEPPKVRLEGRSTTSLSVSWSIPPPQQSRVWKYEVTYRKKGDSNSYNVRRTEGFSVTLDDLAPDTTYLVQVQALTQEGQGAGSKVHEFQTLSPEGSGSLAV
Description: (§7) A human Fab capture method was utilized in order to determine kinetics for the antibodies. […] Each channel has two flow cells. The reference flow cell contained only immobilized anti-Fab, whereas the reaction flow cell captured anti-EphA2 IgG through anti-Fab. HBS-EP+ Buffer, pH 7.6 was used as the running buffer. The soluble human, mouse and cyno EphA2 ectodomain flowed over both flow cells on 8 channels. The EphA2 ectodomain concentration started at 50 nM and was serially diluted at one part to one part (1:1) in the running buffer for six concentrations. The analysis chamber was kept at 37° C. Regeneration was performed at the end of each sample washing with the solution of 10 mM Glycine-HCl, pH 2.1 provided in the kit.
(§8) The data were analysed using the Biacore Insight Evaluation Software. Double reference subtraction was completed to generate the final data. The raw data was fitted to a 1:1 binding model, with parameter(s) Rₘₐₓ set to local.

cyno EphA2 ectodomain [4] = target: T1, cyno EphA2 ectodomain; test: SPR (Biacore 8k), Fab-capture, 37C, 1:1 model;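 further: Anti-EphA2 IgG captured via immobilized anti-Fab, soluble EphA2 ectodomain as analyte at six twofold dilutions from 50 nM, HBS-EP+ pH 7.6 running buffer, double reference subtraction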
Description: as §7, §8

GI50 (sw403; Homo sapiens, SW-403, 120 h): 5.32 nM
GI50 (panc0327; Homo sapiens, PANC-03-27, 120 h): 2.35 nM
GI50 (hcc1143; Homo sapiens, 120 h): 0.99 nM
GI50 (aspc1; Homo sapiens, 120 h): 42.2 nM
Molecule: Cc1c(Nc2nc3ccccc3s2)nnc2c1CCCN2c1ccc(-c2cnn(C[C@]34C[C@]5(C)C[C@](C)(C3)C[C@@](OCCN3CCCC3)(C5)C4)c2C)c(C(=O)O)n1 [P21, 6-[3-(1,3-benzothiazol-2-ylamino)-4-methyl-6,7-dihydro-5H-pyrido[2,3-c]pyridazin-8-yl]-3-[1-[[3,5-dimethyl-7-(2-pyrrolidin-1-ylethoxy)-1-adamantyl]methyl]-5-methyl-pyrazol-4-yl]pyridine-2-carboxylic acid]
GI50 (ocum1; 120 h): 0.49 nM
GI Amax (ocum1): −94.77
GI Amax (sw403): −64.33
GI50 (skhep1; Homo sapiens, SK-HEP1, 120 h): 0.05 nM
GI Amax (skhep1): −75.34
GI50 (skmel31; 120 h): 0.05 nM
GI Amax (skmel31): −56.5
GI50 (dv90; Homo sapiens, DV-90, 120 h): 266 nM
GI Amax (dv90): 16.76
GI50 (ncin87; Homo sapiens, NCI-N87, 120 h): 0.77 nM
GI Amax (ncin87): −29.31
GI Amax (panc0327): −79.2
GI50 (capan2; Homo sapiens, Capan-2, 120 h): 4.38 nM
GI Amax (capan2): −81.72
GI Amax (hcc1143): −43.38
GI Amax (aspc1): 2.18
GI50 (ebc1; Homo sapiens, EBC-1, 120 h): 0.26 nM
GI Amax (ebc1): −96.78
GI50 (jhom2b; 120 h): 68.8 nM
GI Amax (jhom2b): −27.63

Kd (cyno EphA2 ectodomain [3]): 196 nM
B1: anti-EphA2 E152C S375C 1C1 (LC S10T) hIgG1 (WT Heavy Chain) (antibody, V domains shown)
VH: EVQLLESGGGLVQPGGSLRLSCAASGFTFSHYMMAWVRQAPGKGLEWVSRIGPSGGPTHYADSVKGRFTISRDNSKNTLYLQMNSLRAEDTAVYYCAGYDSGYDYVAVAGPAEYFQHWGQGTLVTVSS
VL: DIQMTQSPSTLSASVGDRVTITCRASQSISTWLAWYQQKPGKAPKLLIYKASNLHTGVPSRFSGSGSGTEFSLTISGLQPDDFATYYCQQYNSYSRTFGQGTKVEIKR
notes: also called BB-60-FO04

Kd (cyno EphA2 ectodomain [4]): 265 nM
B3: anti-EphA2 IgG antibody 1C1 (antibody, V domains shown)
VH: EVQLLESGGGLVQPGGSLRLSCAASGFTFSHYMMAWVRQAPGKGLEWVSRIGPSGGPTHYADSVKGRFTISRDNSKNTLYLQMNSLRAEDTAVYYCAGYDSGYDYVAVAGPAEYFQHWGQGTLVTVSS
VL: DIQMTQSPSSLSASVGDRVTITCRASQSISTWLAWYQQKPGKAPKLLIYKASNLHTGVPSRFSGSGSGTEFSLTISGLQPDDFATYYCQQYNSYSRTFGQGTKVEIK
notes: Tested as IgG; also called 1C1 WT IgG; iProt 120126

Continued, molecule first:

Molecule: Nc1ccn([C@@H]2O[C@H](CO)[C@@H](O)C2(F)F)c(=O)n1 [Gemcitabine]
% T/C (Panc03.27 xenografts; Day 11): 31%
ΔTumor volume (mm^3 ± SEM) (Panc03.27 xenografts; Day 11): 153 ± 39 mm^3
Complete Responders (Panc03.27 xenografts; Day 34): 0/8

Molecule: CC(=O)O[C@H]1C(=O)[C@@]2(C)[C@H]([C@H](OC(=O)c3ccccc3)[C@]3(O)C[C@H](OC(=O)[C@H](O)[C@@H](NC(=O)c4ccccc4)c4ccccc4)C(C)=C1C3(C)C)[C@]1(OC(C)=O)CO[C@@H]1C[C@@H]2O [Paclitaxel, paclitaxel]
% T/C (EBC-1 xenografts [1]): 46%
Complete Responders (EBC-1 xenografts [1]): 0/8
ΔTumor volume (mm^3 ± SEM) (EBC-1 xenografts [1]): 687 ± 224 mm^3
% T/C (EBC-1 xenografts [2]; Day 14): 71%
ΔTumor volume (mm^3 ± SEM) (EBC-1 xenografts [2]; Day 14): 649 ± 97 mm^3
Complete Responders (EBC-1 xenografts [2]; Day 16): 0/8

B2: LC Germ (1C1) (antibody, V domains shown)
VH: EVQLLESGGGLVQPGGSLRLSCAASGFTFSHYMMAWVRQAPGKGLEWVSRIGPSGGPTHYADSVKGRFTISRDNSKNTLYLQMNSLRAEDTAVYYCAGYDSGYDYVAVAGPAEYFQHWGQGTLVTVSS
VL: DIQMTQSPSSLSASVGDRVTITCRASQSISTWLAWYQQKPGKAPKLLIYKASNLHTGVPSRFSGSGSGTEFSLTISGLQPDDFATYYCQQYNSYSRTFGQGTKVEIK
notes: also called lots BA-71-QS06, HE-38-AZ34
Kd (cyno EphA2 ectodomain [4]): 224 nM

B4: 1C1 ADC (antibody, V domains shown)
VH: EVQLLESGGGLVQPGGSLRLSCAASGFTFSHYMMAWVRQAPGKGLEWVSRIGPSGGPTHYADSVKGRFTISRDNSKNTLYLQMNSLRAEDTAVYYCAGYDSGYDYVAVAGPAEYFQHWGQGTLVTVSS
VL: DIQMTQSPSSLSASVGDRVTITCRASQSISTWLAWYQQKPGKAPKLLIYKASNLHTGVPSRFSGSGSGTEFSLTISGLQPDDFATYYCQQYNSYSRTFGQGTKVEIK
modifications: antibody-drug conjugate; linker-payload and conjugation sites not stated for this sample
notes: Antibody-drug conjugate of 1C1; also called XD-01-KE85
Kd (cyno EphA2 ectodomain [4]): 220 nM
